{"source": "patent US9476099B2", "about": "(TRUSTEES OF DARTMOUTH COLLEGE, priority 2012, dated 2016)", "system": "gene promoters in NT2/D1-R1 control and DNMT3B knockdown cells", "assay": "Genome-wide promoter methylation analysis, HumanMethylation27 BeadChip (Table 15)", "format": "cell-based, human", "conditions": "sh-3b + 5aza", "description": "DNA methylation analysis was performed in samples in triplicate using the […] […] assay with the HumanMethylation27 BeadChip ([…]) and the BeadChip was scanned on the BeadArray Reader ([…]), according to the manufacturer's instructions. Raw data was normalized and analyzed with Genome Studio software ([…]). The HumanMethylation27 BeadChip assays 27,578 CpGs covering more than 14,000 genes, mostly from promoter regions. […] Hierarchical clustering was performed as stated above. HumanMethylation27 BeadChip data and gene expression microarray data were submitted to NCBI GEO."}
{"smiles": "Nc1ncn([C@H]2C[C@H](O)[C@@H](CO)O2)c(=O)n1", "note": "[5aza]", "values": [{"measurement": "ABCC1 cg20158248 promoter methylation Mean", "value": 0.458}, {"measurement": "ACP1 cg27226618 promoter methylation Mean", "value": 0.490}, {"measurement": "ADCY4 cg16761581 promoter methylation Mean", "value": 0.297}, {"measurement": "ADRA2A cg26926521 promoter methylation Mean", "value": 0.682}, {"measurement": "ALDH1A3 cg19224278 promoter methylation Mean", "value": 0.310}, {"measurement": "ALKBH4 cg07404418 promoter methylation Mean", "value": 0.312}, {"measurement": "ALX4 cg04549333 promoter methylation Mean", "value": 0.880}, {"measurement": "ALX4 cg04970352 promoter methylation Mean", "value": 0.645}, {"measurement": "ALX4 cg19358442 promoter methylation Mean", "value": 0.834}, {"measurement": "ANKRD13C cg19342782 promoter methylation Mean", "value": 0.372}, {"measurement": "ANKRD45 cg15883716 promoter methylation Mean", "value": 0.793}, {"measurement": "APC cg16970232 promoter methylation Mean", "value": 0.269}, {"measurement": "BLOC1S2 cg26610808 promoter methylation Mean", "value": 0.526}, {"measurement": "BTBD5 cg00660989 promoter methylation Mean", "value": 0.214}, {"measurement": "BTNL8 cg24024214 promoter methylation Mean", "value": 0.781}, {"measurement": "C1QL1 cg13818573 promoter methylation Mean", "value": 0.255}, {"measurement": "C1orf188 cg15731815 promoter methylation Mean", "value": 0.321}, {"measurement": "C10orf107 cg16063112 promoter methylation Mean", "value": 0.230}, {"measurement": "C14orf173 cg24404909 promoter methylation Mean", "value": 0.248}, {"measurement": "C16orf60 cg17858663 promoter methylation Mean", "value": 0.177}, {"measurement": "C19orf4 cg07379574 promoter methylation Mean", "value": 0.733}, {"measurement": "C19orf22 cg18022193 promoter methylation Mean", "value": 0.180}, {"measurement": "CAMK1G cg27337148 promoter methylation Mean", "value": 0.715}, {"measurement": "CD58 cg21039631 promoter methylation Mean", "value": 0.325}, {"measurement": "CDKN2B cg04675937 promoter methylation Mean", "value": 0.167}, {"measurement": "CDKN2B cg08390209 promoter methylation Mean", "value": 0.150}, {"measurement": "CDX1 cg15452204 promoter methylation Mean", "value": 0.424}, {"measurement": "CEACAM4 cg10237469 promoter methylation Mean", "value": 0.430}, {"measurement": "CEACAM7 cg19623751 promoter methylation Mean", "value": 0.616}, {"measurement": "CGI-38 cg13067215 promoter methylation Mean", "value": 0.274}, {"measurement": "CHD5 cg00282347 promoter methylation Mean", "value": 0.682}, {"measurement": "CHMP2A cg14042128 promoter methylation Mean", "value": 0.354}, {"measurement": "COL11A1 cg12884406 promoter methylation Mean", "value": 0.331}, {"measurement": "COPS7B cg05422352 promoter methylation Mean", "value": 0.338}, {"measurement": "CRSP7 cg24459023 promoter methylation Mean", "value": 0.268}, {"measurement": "CSPG3 cg06952310 promoter methylation Mean", "value": 0.350}, {"measurement": "CSTF2T cg06712026 promoter methylation Mean", "value": 0.277}, {"measurement": "CTAGE1 cg02847216 promoter methylation Mean", "value": 0.727}, {"measurement": "CUL3 cg09509863 promoter methylation Mean", "value": 0.309}, {"measurement": "CYP4F12 cg25813714 promoter methylation Mean", "value": 0.721}, {"measurement": "DCTD cg14892066 promoter methylation Mean", "value": 0.171}, {"measurement": "DDEF2 cg22190705 promoter methylation Mean", "value": 0.187}, {"measurement": "DEFB118 cg03014957 promoter methylation Mean", "value": 0.548}, {"measurement": "DNASE2 cg07955356 promoter methylation Mean", "value": 0.207}, {"measurement": "DPH1 cg11516377 promoter methylation Mean", "value": 0.319}, {"measurement": "DYRK1B cg18851831 promoter methylation Mean", "value": 0.820}, {"measurement": "EIF2B3 cg16604218 promoter methylation Mean", "value": 0.360}, {"measurement": "ELSPBP1 cg19404979 promoter methylation Mean", "value": 0.406}, {"measurement": "ENOSF1 cg16112050 promoter methylation Mean", "value": 0.724}, {"measurement": "EPN3 cg24006361 promoter methylation Mean", "value": 0.739}, {"measurement": "EREG cg19308222 promoter methylation Mean", "value": 0.252}, {"measurement": "FAM111B cg13864937 promoter methylation Mean", "value": 0.366}, {"measurement": "FLJ10726 cg14145762 promoter methylation Mean", "value": 0.292}, {"measurement": "FLJ11200 cg09001953 promoter methylation Mean", "value": 0.335}, {"measurement": "FLJ23514 cg16404106 promoter methylation Mean", "value": 0.436}, {"measurement": "FLRT3 cg23127998 promoter methylation Mean", "value": 0.249}, {"measurement": "FLT3LG cg01667384 promoter methylation Mean", "value": 0.179}, {"measurement": "FXYD7 cg22392666 promoter methylation Mean", "value": 0.720}, {"measurement": "G10 cg02798801 promoter methylation Mean", "value": 0.349}, {"measurement": "GABRB2 cg16509658 promoter methylation Mean", "value": 0.176}, {"measurement": "GALNT4 cg16606638 promoter methylation Mean", "value": 0.245}, {"measurement": "GAS8 cg03634997 promoter methylation Mean", "value": 0.814}, {"measurement": "GBX2 cg23095584 promoter methylation Mean", "value": 0.268}, {"measurement": "GNAS cg27661264 promoter methylation Mean", "value": 0.334}, {"measurement": "GRB10 cg26163537 promoter methylation Mean", "value": 0.310}, {"measurement": "GUP1 cg24938727 promoter methylation Mean", "value": 0.441}, {"measurement": "HACE1 cg23047681 promoter methylation Mean", "value": 0.156}, {"measurement": "HGF cg06745740 promoter methylation Mean", "value": 0.404}, {"measurement": "HNRNPG-T cg22062068 promoter methylation Mean", "value": 0.650}, {"measurement": "HOXB4 cg25145670 promoter methylation Mean", "value": 0.311}, {"measurement": "HRASLS cg08376864 promoter methylation Mean", "value": 0.309}, {"measurement": "HYPK cg00480356 promoter methylation Mean", "value": 0.630}, {"measurement": "ICAM1 cg08607082 promoter methylation Mean", "value": 0.149}, {"measurement": "IFI16 cg07463059 promoter methylation Mean", "value": 0.386}, {"measurement": "IFI44 cg07107453 promoter methylation Mean", "value": 0.330}, {"measurement": "IFNA2 cg13235447 promoter methylation Mean", "value": 0.480}, {"measurement": "IGF2AS cg20792294 promoter methylation Mean", "value": 0.211}, {"measurement": "IGFBP5 cg19008649 promoter methylation Mean", "value": 0.264}, {"measurement": "IGSF9 cg19111262 promoter methylation Mean", "value": 0.576}, {"measurement": "IHH cg17178336 promoter methylation Mean", "value": 0.504}, {"measurement": "IL2RG cg01361446 promoter methylation Mean", "value": 0.834}, {"measurement": "IL18 cg11304234 promoter methylation Mean", "value": 0.478}, {"measurement": "INPP5B cg10784030 promoter methylation Mean", "value": 0.251}, {"measurement": "ITGB3BP cg18464559 promoter methylation Mean", "value": 0.121}, {"measurement": "KA21 cg23776012 promoter methylation Mean", "value": 0.410}, {"measurement": "KCNA3 cg03483626 promoter methylation Mean", "value": 0.208}, {"measurement": "KCNAB3 cg14918082 promoter methylation Mean", "value": 0.534}, {"measurement": "KCNB2 cg11754206 promoter methylation Mean", "value": 0.377}, {"measurement": "KCNK10 cg17671157 promoter methylation Mean", "value": 0.820}, {"measurement": "KLK7 cg19953406 promoter methylation Mean", "value": 0.680}, {"measurement": "LAMB1 cg10064162 promoter methylation Mean", "value": 0.295}, {"measurement": "LDHD cg24429836 promoter methylation Mean", "value": 0.510}, {"measurement": "LIG4 cg08216792 promoter methylation Mean", "value": 0.266}, {"measurement": "LYNX1 cg24046110 promoter methylation Mean", "value": 0.288}, {"measurement": "MC3R cg19226099 promoter methylation Mean", "value": 0.784}, {"measurement": "MGC26856 cg07684809 promoter methylation Mean", "value": 0.260}, {"measurement": "MLNR cg02620013 promoter methylation Mean", "value": 0.418}, {"measurement": "MPHOSPH6 cg16119274 promoter methylation Mean", "value": 0.280}, {"measurement": "MSX1 cg03199651 promoter methylation Mean", "value": 0.204}, {"measurement": "MYOD1 cg24322623 promoter methylation Mean", "value": 0.650}, {"measurement": "NCKIPSD cg04244987 promoter methylation Mean", "value": 0.242}, {"measurement": "NDP cg11614809 promoter methylation Mean", "value": 0.579}, {"measurement": "NEFH cg16042149 promoter methylation Mean", "value": 0.776}, {"measurement": "NEIL2 cg14329976 promoter methylation Mean", "value": 0.226}, {"measurement": "NME5 cg13707560 promoter methylation Mean", "value": 0.911}, {"measurement": "NME5 cg25507001 promoter methylation Mean", "value": 0.671}, {"measurement": "NOC3L cg07270175 promoter methylation Mean", "value": 0.464}, {"measurement": "NOX4 cg17063929 promoter methylation Mean", "value": 0.575}, {"measurement": "NPAS1 cg09628601 promoter methylation Mean", "value": 0.303}, {"measurement": "NRXN1 cg10917619 promoter methylation Mean", "value": 0.594}, {"measurement": "OR1N1 cg14598387 promoter methylation Mean", "value": 0.339}, {"measurement": "OR10J1 cg15700197 promoter methylation Mean", "value": 0.444}, {"measurement": "PACS1 cg01663295 promoter methylation Mean", "value": 0.329}, {"measurement": "PCDHB13 cg14592099 promoter methylation Mean", "value": 0.423}, {"measurement": "PCDHB13 cg24435562 promoter methylation Mean", "value": 0.273}, {"measurement": "PCDHGA12 cg11647681 promoter methylation Mean", "value": 0.623}, {"measurement": "PCGF5 cg17001035 promoter methylation Mean", "value": 0.664}, {"measurement": "PEPD cg06546607 promoter methylation Mean", "value": 0.229}, {"measurement": "PEX5L cg02430692 promoter methylation Mean", "value": 0.322}, {"measurement": "PI3 cg02442161 promoter methylation Mean", "value": 0.625}, {"measurement": "PIGL cg05310071 promoter methylation Mean", "value": 0.231}, {"measurement": "POU3F3 cg20291049 promoter methylation Mean", "value": 0.268}, {"measurement": "POU4F2 cg24199834 promoter methylation Mean", "value": 0.231}, {"measurement": "PTCH2 cg15329642 promoter methylation Mean", "value": 0.576}, {"measurement": "PTPN5 cg17233601 promoter methylation Mean", "value": 0.498}, {"measurement": "RASGEF1A cg07871503 promoter methylation Mean", "value": 0.574}, {"measurement": "RBPSUHL cg21835643 promoter methylation Mean", "value": 0.665}, {"measurement": "REM1 cg12153542 promoter methylation Mean", "value": 0.456}, {"measurement": "REM1 cg26299767 promoter methylation Mean", "value": 0.440}, {"measurement": "RLN3R1 cg12238343 promoter methylation Mean", "value": 0.451}, {"measurement": "RPL39L cg07441272 promoter methylation Mean", "value": 0.505}, {"measurement": "RRM2B cg07125123 promoter methylation Mean", "value": 0.288}, {"measurement": "RYR1 cg05471297 promoter methylation Mean", "value": 0.272}, {"measurement": "S100A12 cg02813121 promoter methylation Mean", "value": 0.719}, {"measurement": "SCUBE2 cg01081263 promoter methylation Mean", "value": 0.505}, {"measurement": "SCUBE2 cg19237879 promoter methylation Mean", "value": 0.493}, {"measurement": "SEMA3E cg08274234 promoter methylation Mean", "value": 0.207}, {"measurement": "SEMA6C cg01958916 promoter methylation Mean", "value": 0.255}, {"measurement": "SEPN1 cg21187265 promoter methylation Mean", "value": 0.381}]}
